In US7632818B2, “Method for treating conditions associated with the Metabolic Syndrome (Syndrome X)” (priority 2003, dated 2009):
Residues, ends and D or L forms follow the SMILES beside them.

What was measured:
[1] = Forward looking example: Metabolic Syndrome patient with chronic environmental antigen stimulation; format: in vivo, human; conditions: sublingual once every two weeks, with diet, exercise, ACE Inhibitor, Fluconazole; over a year
Text: The further application of the instant invention is illustrated by the following forward looking examples.
• A young person presents to their physician, on annual physical examination, with a weight gain of 50 pounds, is found to have high blood pressure, and reports vaginal pruritis. Over the past few years, they have lived in an area of major traffic congestion (near an oil refinery). The physician does a physical examination and discovers unusual black pigmented areas in their neck creases (acanthosis nigricans) and orders laboratory tests, including fasting and 2-hour blood glucose, serum triglycerides, serum insulin, a cholesterol profile, C-Reactive Protein, serum fibrinogen, and a vaginal smear for candidiasis. • They are found to have impaired glucose tolerance, elevated serum triglycerides, low HDL and high […] and high C-Reactive Protein and fibrinogen levels. Their vaginal smear is positive for candida albicans. • The physician knows that they are seeing a case of the Metabolic Syndrome which progresses to Diabetes Mellitus and Coronary Heart Disease. They prescribe a weight reduction diabetic diet, physical exercise, an ACE Inhibitor, and Fluconazole. […] They continue their diet and physical exercise and loses weight. They require less high blood pressure medication. The physician continues to monitor their cell-mediated immune function, blood glucose levels, lipid profile, and measures of inflammation, and adjusts their medications appropriately. • The patient continues to lose weight to reach their target weight, blood pressure is controlled, blood glucose is normalized, and their risk of diabetes mellitus and coronary heart disease is reduced.

[2] = FEBS LET. 383:18 (1996); cited from earlier work

Row | SMILES | Blood glucose [1] | C-Reactive Protein [1] | Cholesterol level [1] | Immunological activity in vitro [2]
1 | N[C@@H](Cc1ccc(O)cc1)C(=O)NCC(=O)O [YG, L-tyrosylglycine] | changes toward normal | reduced | reduced | immunologically active
2 | N[C@@H](Cc1ccc(O)cc1)C(=O)NCC(=O)NCC(=O)O [YGG, L-tyrosylglycylglycine] (H-Tyr-Gly-Gly-OH) |  |  |  | immunologically active
